Assay results as given in patent publication US20240051970A1, “COMPOUNDS AND COMPOSITIONS FOR TREATING CONDITIONS ASSOCIATED WITH STING ACTIVITY” (IFM Due, Inc., priority 2020, published 2024).
pEC50: −log10 of the molar value.

Molecular target: T1, hSTING (Homo sapiens, UniProt Q86WV6, G230A/H232R/R293Q/R71H)
T1 construct: host or cells: THP1-Dual KO-IFNAR2 cells
Test: STING reporter assay (luciferase) in THP1-Dual KO-IFNAR2 cells activated with 2'3'cGAMP
Format: cell-based
Conditions: 15 μM 2'3'cGAMP, 24 h
Description: STING pathway activation by the compounds described herein was measured using THP1-Dual™ cells (KO-IFNAR2).
THP1-Dual™ KO-IFNAR2 Cells (obtained from invivogen) were maintained in RPMI, 10% FCS, 5 ml P/S, 2 mM L-glut, 10 mM Hepes, and 1 mM sodium pyruvate. Compounds were spotted in empty 384 well tissue culture plates (Greiner 781182) by Echo for a final concentration of 0.0017-100 μM. Cells were plated into the TC plates at 40 μL per well, 2×10E6 cells/mL. For activation with STING ligand, 2′3′cGAMP (MW 718.38, obtained from Invivogen), was prepared in Optimem media.
The following solutions were prepared for each 1×384 plate: • Solution A: 2 mL Optimem with one of the following stimuli: • 60 μL of 10 mM 2′3′cGAMP 4 150 μM stock • Solution B: 2 mL Optimem with 60 μL Lipofectamine 2000 4 Incubate 5 min at RT
2 mL of solution A and 2 ml Solution B was mixed and incubated for 20 min at room temperature (RT). 20 μL of transfection solution (A+B) was added on top of the plated cells, with a final 2′3′cGAMP concentration of 15 μM. The plates were then centrifuged immediately at 340 g for 1 minute, after which they were incubated at 37° C., 5% CO2, >98% humidity for 24 h. Luciferase reporter activity was then measured. EC50 values were calculated by using standard methods known in the art.
Luciferase reporter assay: 10 μL of supernatant from the assay was transferred to white 384-plate with flat bottom and squared wells. One pouch of QUANTI-Luc™ Plus was dissolved in 25 mL of water. 100 μL of QLC Stabilizer per 25 mL of QUANTI-Luc™ Plus solution was added. 50 μL of QUANTI-Luc™ Plus/QLC solution per well was then added. Luminescence was measured on a Platereader (e.g., Spectramax I3X (Molecular Devices GF3637001)).
Luciferase reporter activity was then measured. EC50 values were calculated by using standard methods known in the art.

T1 sequence (Q86WV6 whole entry R71H/G230A/H232R/R293Q): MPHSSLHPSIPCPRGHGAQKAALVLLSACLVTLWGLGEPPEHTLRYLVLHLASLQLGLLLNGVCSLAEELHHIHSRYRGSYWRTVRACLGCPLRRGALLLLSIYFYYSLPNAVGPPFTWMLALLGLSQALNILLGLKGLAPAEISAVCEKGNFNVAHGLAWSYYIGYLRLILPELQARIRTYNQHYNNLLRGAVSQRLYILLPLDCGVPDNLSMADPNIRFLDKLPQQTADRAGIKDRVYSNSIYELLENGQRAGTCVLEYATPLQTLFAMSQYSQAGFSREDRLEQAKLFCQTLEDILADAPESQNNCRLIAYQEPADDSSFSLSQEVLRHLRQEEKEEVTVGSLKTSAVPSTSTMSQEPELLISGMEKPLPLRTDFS

Compound	pEC50
COCCn1c(Nc2cc(Cl)c3cc[nH]c3c2)nc2cc(Cl)c(Cl)cc21 [Compound 104, 5,6-dichloro-N-(4-chloro-1H-indol-6-yl)-1-(2-methoxyethyl)-1H-benzo[d]imidazol-2-amine]	5.30 to 6.00
Cn1c(Nc2cc(Cl)c3cc[nH]c3c2)nc2cc(C(F)(F)F)ccc21 [Compound 113, N-(4-chloro-1H-indol-6-yl)-1-methyl-5-(trifluoromethyl)-1H-benzo[d]imidazol-2-amine]	5.30 to 6.00
Clc1ccc2c(c1)nc(Nc1cc(Cl)c3cc[nH]c3c1)n2Cc1ccccc1 [Compound 106, 1-benzyl-5-chloro-N-(4-chloro-1H-indol-6-yl)-1H-benzo[d]imidazol-2-amine]	5.30 to 6.00
CC(C)(C)OC(=O)N1C2C=C(c3ccc4[nH]c(Nc5cc(Cl)c6cc[nH]c6c5)nc4c3)CC1CC2 (centres unmarked) [Compound 140, tert-butyl 3-{2-[(4-chloro-1H-indol-6-yl)amino]-1H-1,3-benzodiazol-5-yl}-8-azabicyclo[3.2.1]oct-2-ene-8-carboxylate]	5.30 to 6.00
CCn1c(Nc2ccc3cc[nH]c3c2)nc2cc(C(F)(F)F)ccc21 [Compound 122, 1-ethyl-N-(1H-indol-6-yl)-5-(trifluoromethyl)-1H-benzo[d]imidazol-2-amine]	5.30 to 6.00
Cc1ccc2[nH]c(Nc3cc(Cl)c4cc[nH]c4c3)nc2c1 [Compound 118, N-(4-chloro-1H-indol-6-yl)-5-methyl-1H-benzo[d]imidazol-2-amine]	6.00 to 6.70
Clc1ccc2c(c1)nc(Nc1cc(Cl)c3cc[nH]c3c1)n2CCc1ccccc1 [Compound 107, 5-chloro-N-(4-chloro-1H-indol-6-yl)-1-phenethyl-1H-benzo[d]imidazol-2-amine]	5.30 to 6.00
Clc1ccc2[nH]c(Nc3cc(Cl)c4cc[nH]c4c3)nc2c1 [Compound 117, 5-chloro-N-(4-chloro-1H-indol-6-yl)-1H-benzo[d]imidazol-2-amine]	6.00 to 6.70
Cn1c(Nc2ccc3cc[nH]c3c2)nc2ccc(C(F)(F)F)cc21 [Compound 114, N-(1H-indol-6-yl)-1-methyl-6-(trifluoromethyl)-1H-benzo[d]imidazol-2-amine]	5.30 to 6.00
COCc1cccc(-c2ccc3[nH]c(Nc4cc(Cl)c5cc[nH]c5c4)nc3c2)c1 [Compound 169, N-(4-chloro-1H-indol-6-yl)-5-[3-(methoxymethyl)phenyl]-1H-1,3-benzodiazol-2-amine]	6.00 to 6.70
CC(C)(C)OC(=O)NC1CCC(c2ccc3[nH]c(Nc4cc(Cl)c5cc[nH]c5c4)nc3c2)CC1 (centres unmarked) [Compound 148, tert-butyl N-(4-{2-[(4-chloro-1H-indol-6-yl)amino]-1H-1,3-benzodiazol-5-yl}cyclohexyl)carbamate]	6.00 to 6.70
Cn1nccc1-c1ccc2[nH]c(Nc3cc(Cl)c4cc[nH]c4c3)nc2c1 [Compound 150, N-(4-chloro-1H-indol-6-yl)-5-(1-methyl-1H-pyrazol-5-yl)-1H-1,3-benzodiazol-2-amine]	6.00 to 6.70
Clc1cc(Nc2nc3cc(Br)ccc3[nH]2)cc2[nH]ccc12 [Compound 119, 5-bromo-N-(4-chloro-1H-indol-6-yl)-1H-benzo[d]imidazol-2-amine]	6.00 to 6.70
Fc1ccc2nc(Nc3cc(Cl)c4cc[nH]c4c3)[nH]c2c1 [Compound 115, N-(4-chloro-1H-indol-6-yl)-6-fluoro-1H-benzo[d]imidazol-2-amine]	6.00 to 6.70
CN(C)CCn1cc(-c2ccc3[nH]c(Nc4cc(Cl)c5cc[nH]c5c4)nc3c2)cn1 [Compound 147, N-(4-chloro-1H-indol-6-yl)-5-{1-[2-(dimethylamino)ethyl]-1H-pyrazol-4-yl}-1H-1,3-benzodiazol-2-amine]	4.00 to 5.30
FC(F)(F)c1cnc2nc(Nc3cc(Cl)c4cc[nH]c4c3)[nH]c2c1 [Compound 112, N-(4-chloro-1H-indol-6-yl)-6-(trifluoromethyl)-1H-imidazo[4,5-b]pyridin-2-amine]	6.00 to 6.70
CC(C)(C)C1CCC(c2ccc3[nH]c(Nc4cc(Cl)c5cc[nH]c5c4)nc3c2)CC1 (centres unmarked) [Compound 136, 5-(4-tert-butylcyclohexyl)-N-(4-chloro-1H-indol-6-yl)-1H-1,3-benzodiazol-2-amine]	5.30 to 6.00
Clc1cc(Nc2nc3cc(-c4cnn(-c5ccccc5)c4)ccc3[nH]2)cc2[nH]ccc12 [Compound 164, N-(4-chloro-1H-indol-6-yl)-5-(1-phenyl-1H-pyrazol-4-yl)-1H-1,3-benzodiazol-2-amine]	6.00 to 6.70

The next lines start with the values.

pEC50	Compound
6.00 to 6.70	Clc1cc(Nc2nc3cc(C4CCCCC4)ccc3[nH]2)cc2[nH]ccc12 [Compound 168, N-(4-chloro-1H-indol-6-yl)-5-cyclohexyl-1H-1,3-benzodiazol-2-amine]
6.00 to 6.70	COCCn1cc(-c2ccc3[nH]c(Nc4cc(Cl)c5cc[nH]c5c4)nc3c2)cn1 [Compound 158, N-(4-chloro-1H-indol-6-yl)-5-[1-(2-methoxyethyl)-1H-pyrazol-4-yl]-1H-1,3-benzodiazol-2-amine]
6.00 to 6.70	CS(=O)(=O)N1CCC(c2ccc3[nH]c(Nc4cc(Cl)c5cc[nH]c5c4)nc3c2)CC1 [Compound 171, N-(4-chloro-1H-indol-6-yl)-5-(1-methanesulfonylpiperidin-4-yl)-1H-1,3-benzodiazol-2-amine]
6.00 to 6.70	FC(F)(F)c1ccc2[nH]c(Nc3cc(Cl)c4cc[nH]c4c3)nc2c1 [Compound 120, N-(4-chloro-1H-indol-6-yl)-5-(trifluoromethyl)-1H-benzo[d]imidazol-2-amine]
6.00 to 6.70	FC(F)n1cc(-c2ccc3[nH]c(Nc4cc(Cl)c5cc[nH]c5c4)nc3c2)cn1 [Compound 163, N-(4-chloro-1H-indol-6-yl)-5-[1-(difluoromethyl)-1H-pyrazol-4-yl]-1H-1,3-benzodiazol-2-amine]
6.00 to 6.70	Cn1ccc(-c2ccc3[nH]c(Nc4cc(Cl)c5cc[nH]c5c4)nc3c2)n1 [Compound 144, N-(4-chloro-1H-indol-6-yl)-5-(1-methyl-1H-pyrazol-3-yl)-1H-1,3-benzodiazol-2-amine]
6.00 to 6.70	N#Cc1ccc2[nH]c(Nc3cc(Cl)c4cc[nH]c4c3)nc2c1 [Compound 116, 2-((4-chloro-1H-indol-6-yl)amino)-1H-benzo[d]imidazole-5-carbonitrile]
6.00 to 6.70	Clc1cc(Nc2nc3cc(-c4cnn(CC5CC5)c4)ccc3[nH]2)cc2[nH]ccc12 [Compound 156, N-(4-chloro-1H-indol-6-yl)-5-[1-(cyclopropylmethyl)-1H-pyrazol-4-yl]-1H-1,3-benzodiazol-2-amine]
6.00 to 6.70	CC(C)(O)CCc1ccc2[nH]c(Nc3cc(Cl)c4cc[nH]c4c3)nc2c1 [Compound 173, 4-{2-[(4-chloro-1H-indol-6-yl)amino]-1H-1,3-benzodiazol-5-yl}-2-methylbutan-2-ol]
6.00 to 6.70	FC(F)(F)c1cc2[nH]c(Nc3cc(Cl)c4cc[nH]c4c3)nc2cn1 [Compound 111, N-(4-chloro-1H-indol-6-yl)-6-(trifluoromethyl)-1H-imidazo[4,5-c]pyridin-2-amine]
6.00 to 6.70	CC(C)(C)OC(=O)N1CCCC(c2ccc3[nH]c(Nc4cc(Cl)c5cc[nH]c5c4)nc3c2)C1 (centres unmarked) [Compound 151, tert-butyl 3-{2-[(4-chloro-1H-indol-6-yl)amino]-1H-1,3-benzodiazol-5-yl}piperidine-1-carboxylate]
6.00 to 6.70	Clc1cc(Nc2nc3ccc(C4CCC4)cc3[nH]2)cc2[nH]ccc12 [Compound 108, N-(4-chloro-1H-indol-6-yl)-6-cyclobutyl-1H-benzo[d]imidazol-2-amine]
6.70 to 7.40	Fc1c[nH]c2cc(Nc3nc4cc(Cl)c(Cl)cc4[nH]3)ccc12 [Compound 174, 5,6-dichloro-N-(3-fluoro-1H-indol-6-yl)-1H-1,3-benzodiazol-2-amine]
6.00 to 6.70	CC(C)n1cc(-c2ccc3[nH]c(Nc4cc(Cl)c5cc[nH]c5c4)nc3c2)cn1 [Compound 155, N-(4-chloro-1H-indol-6-yl)-5-[1-(propan-2-yl)-1H-pyrazol-4-yl]-1H-1,3-benzodiazol-2-amine]
6.00 to 6.70	Clc1cc(Nc2nc3cc(C4CCOCC4)ccc3[nH]2)cc2[nH]ccc12 [Compound 161, N-(4-chloro-1H-indol-6-yl)-5-(oxan-4-yl)-1H-1,3-benzodiazol-2-amine]
6.00 to 6.70	CC(C)(O)c1ccc(-c2ccc3[nH]c(Nc4cc(Cl)c5cc[nH]c5c4)nc3c2)cc1 [Compound 166, 2-(4-{2-[(4-chloro-1H-indol-6-yl)amino]-1H-1,3-benzodiazol-5-yl}phenyl)propan-2-ol]
6.00 to 6.70	O=C(C1CC1)N1CCC(c2ccc3[nH]c(Nc4cc(Cl)c5cc[nH]c5c4)nc3c2)CC1 [Compound 172, N-(4-chloro-1H-indol-6-yl)-5-(1-cyclopropanecarbonylpiperidin-4-yl)-1H-1,3-benzodiazol-2-amine]
